# Patent US6362230B1, “Sulphonamide derivatives” (Eli Lilly and Company, priority 1998, dated 2002)
# Target: T1, human GluR4B receptor (Homo sapiens, UniProt P48058)
# T1 construct: expressed in transfected cells
# Experiment: potentiation of agonist-induced excitability of human GluR4B receptor expressed in HEK 293 cells
# Format: cell-based
# Text: The ability of compounds of formula I or formula XVII to potentiate glutamate receptor-mediated response may be determined using fluorescent calcium indicator dyes (Molecular Probes, Eugene, Oreg., Fluo-3) and by measuring glutamate-evoked […] of calcium into GluR4 transfected HEK293 cells, as described in more detail below.
# In one test, 96 well plates containing confluent monolayers of HEK cells stably expressing human GluR4B (obtained as described in European Patent Application Publication Number EP-A1-583917) are prepared. The tissue culture medium in the wells is then discarded, and the wells are each washed once with 200 μl of buffer (glucose, 10 mM, sodium chloride, 138 mM, magnesium chloride, 1 mM, potassium chloride, 5 mM, calcium chloride, 5 mM, N-[2-hydroxyethyl]piperazine-N-[2-ethanesulfonic acid], 10 mM, to pH 7.1 to 7.3). […]
# Each test is then performed as follows. […] A second fluorescent reading is taken after 5 minutes incubation. 15 μl of 400 μM glutamate solution is then added to each well (final glutamate concentration 100 μM), and a third reading is taken. The activities of test compounds and cyclothiazide solutions are determined by subtracting the second from the third reading (fluorescence due to addition of glutamate in the presence or absence of test compound or cyclothiazide) and are expressed relative to enhance fluorescence produced by 100 μM cyclothiazide.
# T1 sequence (P48058 21-902): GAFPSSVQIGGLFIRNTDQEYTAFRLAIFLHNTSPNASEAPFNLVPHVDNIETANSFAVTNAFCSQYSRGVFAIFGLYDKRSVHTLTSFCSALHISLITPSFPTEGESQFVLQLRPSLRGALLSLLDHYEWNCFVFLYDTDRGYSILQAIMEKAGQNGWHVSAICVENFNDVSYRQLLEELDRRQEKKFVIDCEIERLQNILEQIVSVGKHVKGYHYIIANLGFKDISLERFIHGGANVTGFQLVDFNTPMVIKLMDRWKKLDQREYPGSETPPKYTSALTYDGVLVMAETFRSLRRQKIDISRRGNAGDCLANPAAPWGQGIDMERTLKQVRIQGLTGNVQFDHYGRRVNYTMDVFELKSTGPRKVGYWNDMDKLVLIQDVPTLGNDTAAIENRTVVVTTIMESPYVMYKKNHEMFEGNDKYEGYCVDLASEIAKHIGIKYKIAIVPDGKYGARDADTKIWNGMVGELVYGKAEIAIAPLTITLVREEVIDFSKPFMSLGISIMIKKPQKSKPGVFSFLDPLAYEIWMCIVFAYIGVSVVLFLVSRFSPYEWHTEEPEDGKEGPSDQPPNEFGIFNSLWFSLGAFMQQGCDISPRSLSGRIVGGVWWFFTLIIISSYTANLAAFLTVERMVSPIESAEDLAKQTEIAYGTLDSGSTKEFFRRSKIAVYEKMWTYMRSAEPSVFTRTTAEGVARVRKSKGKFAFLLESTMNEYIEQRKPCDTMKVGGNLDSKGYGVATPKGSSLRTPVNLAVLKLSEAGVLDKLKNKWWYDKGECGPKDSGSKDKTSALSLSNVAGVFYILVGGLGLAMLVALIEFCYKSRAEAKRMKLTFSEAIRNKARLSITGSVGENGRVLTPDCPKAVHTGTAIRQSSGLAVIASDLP
structure (smiles),measurement,value
NS(=O)(=O)c1cc2c(cc1Cl)NC(C1CC3C=CC1C3)NS2(=O)=O (stereo not shown) [cyclothiazide],potentiation of agonist-induced excitability of human GluR4B receptor,potentiate agonist-induced excitability
